Data taken from patent EP1285920A1, “C10 Ester sustituted taxanes as antitumor agents” (Florida State University Research Foundation, Inc., priority 2001, dated 2003).

tested on: HCT116; assay: In Vitro cytotoxicity measured by the cell colony formation assay; format: cell-based, human; conditions: HCT116 colony formation; 72 h with drug, colonies counted after 7 days; ID50 = concentration producing 50% inhibition of colony formation; read-out: IN VITRO ID 50 HCT116
Protocol: Four hundred cells (HCT116) were plated in 60 mm Petri dishes containing 2.7 mL of medium (modified McCoy's 5a medium containing 10% fetal bovine serum and 100 units/mL penicillin and […] streptomycin). The cells were incubated in a CO2 incubator at 37 °C for 5 h for attachment to the bottom of Petri dishes. The compounds identified in Example 2 were made up fresh in medium at ten times the final concentration, and then 0.3 mL of this stock solution was added to the 2.7 mL of medium in the dish. The cells were then incubated with drugs for 72 h at 37 °C. At the end of incubation the drug-containing media were decanted, the dishes were rinsed with 4 mL of Hank's Balance Salt Solution (HBSS), 5 mL of fresh medium was added, and the dishes were returned to the incubator for colony formation. The cell colonies were counted using a colony counter after incubation for 7 days.

CC=CC(=O)NC(c1cccs1)C(O)C(=O)OC1CC2(O)C(OC(=O)c3ccccc3)C3C4(OC(C)=O)COC4CC(O)C3(C)C(=O)C(OC(=O)CCC)C(=C1C)C2(C)C (stereo not drawn) [Compound 3595] and CC=CC(=O)OC1C(=O)C2(C)C(O)CC3OCC3(OC(C)=O)C2C(OC(=O)c2ccccc2)C2(O)CC(OC(=O)C(O)C(NC(=O)OC(C)(C)C)c3ccco3)C(C)=C1C2(C)C (stereo not drawn) [Compound 2379] cannot be ordered by IC50: less than 1 nM for the first, less than 1 nM for the second.

CC=CC(=O)OC1C(=O)C2(C)C(O)CC3OCC3(OC(C)=O)C2C(OC(=O)c2ccccc2)C2(O)CC(OC(=O)C(O)C(NC(=O)OC(C)(C)C)c3ccncc3)C(C)=C1C2(C)C (stereo not drawn) [Compound 2366] and CC=CC(=O)OC1C(=O)C2(C)C(O)CC3OCC3(OC(C)=O)C2C(OC(=O)c2ccccc2)C2(O)CC(OC(=O)C(O)C(NC(=O)OC(C)(C)C)C(C)C)C(C)=C1C2(C)C (stereo not drawn) [Compound 2413] cannot be ordered by IC50: less than 1 nM for the first, less than 10 nM for the second.

same assay, conditions: Homo sapiens, HCT-116; read-out: IN VITRO ID 50 HCT116

CC(=O)O[C@@]12CO[C@@H]1C[C@H](O)[C@@]1(C)C(=O)[C@H](OC(=O)C=C(C)C)C3=C(C)[C@@H](OC(=O)[C@H](O)[C@H](C=C(C)C)NC(=O)OC(C)(C)C)C[C@@](O)([C@@H](OC(=O)c4ccccc4)[C@H]21)C3(C)C [Compound 2455] and CC(=O)O[C@@]12CO[C@@H]1C[C@H](O)[C@@]1(C)C(=O)[C@H](OC(=O)C=C(C)C)C3=C(C)[C@@H](OC(=O)[C@H](O)[C@@H](NC(=O)OC(C)(C)C)c4ccncc4)C[C@@](O)([C@@H](OC(=O)c4ccccc4)[C@H]21)C3(C)C [Compound 2472] cannot be ordered by IC50: less than 10 nM for the first, less than 1 nM for the second.

CCCC(=O)O[C@H]1C(=O)[C@@]2(C)[C@H]([C@H](OC(=O)c3ccccc3)[C@]3(O)C[C@H](OC(=O)[C@H](O)[C@@H](NC(=O)OCC)c4ccco4)C(C)=C1C3(C)C)[C@]1(OC(C)=O)CO[C@@H]1C[C@@H]2O [Compound 3693] and CCOC(=O)N[C@@H](c1ccco1)[C@@H](O)C(=O)O[C@H]1C[C@@]2(O)[C@@H](OC(=O)c3ccccc3)[C@@H]3[C@]4(OC(C)=O)CO[C@@H]4C[C@H](O)[C@@]3(C)C(=O)[C@H](OC(=O)CC)C(=C1C)C2(C)C [Compound 3535] cannot be ordered by IC50: less than 1 nM for the first, less than 1 nM for the second.

CCC(=O)O[C@H]1C(=O)[C@@]2(C)[C@H]([C@H](OC(=O)c3ccccc3)[C@]3(O)C[C@H](OC(=O)[C@H](O)[C@@H](NC(=O)c4ccccc4)C(C)C)C(C)=C1C3(C)C)[C@]1(OC(C)=O)CO[C@@H]1C[C@@H]2O [Compound 0719] and CCC(=O)O[C@H]1C(=O)[C@@]2(C)[C@H]([C@H](OC(=O)c3ccccc3)[C@]3(O)C[C@H](OC(=O)[C@H](O)[C@H](C=C(C)C)NC(=O)c4ccccc4)C(C)=C1C3(C)C)[C@]1(OC(C)=O)CO[C@@H]1C[C@@H]2O [Compound 0625] cannot be ordered by IC50: less than 10 nM for the first, less than 1 nM for the second.

CC(=O)O[C@@]12CO[C@@H]1C[C@H](O)[C@@]1(C)C(=O)[C@H](OC(=O)c3ccco3)C3=C(C)[C@@H](OC(=O)[C@H](O)[C@@H](NC(=O)OC(C)(C)C)c4ccccn4)C[C@@](O)([C@@H](OC(=O)c4ccccc4)[C@H]21)C3(C)C [Compound 2111] and CC(=O)O[C@@]12CO[C@@H]1C[C@H](O)[C@@]1(C)C(=O)[C@H](OC(=O)c3cccs3)C3=C(C)[C@@H](OC(=O)[C@H](O)[C@@H](NC(=O)OC(C)(C)C)c4ccccn4)C[C@@](O)([C@@H](OC(=O)c4ccccc4)[C@H]21)C3(C)C [Compound 1883] cannot be ordered by IC50: less than 1 nM for the first, less than 10 nM for the second.

CC(=O)OC12COC1CC(O)C1(C)C(=O)C(OC(=O)C(C)C)C3=C(C)C(OC(=O)C(O)C(NC(=O)OC(C)(C)C)c4cccs4)CC(O)(C(OC(=O)c4ccccc4)C21)C3(C)C (stereo not drawn) [Compound 2287] and CC(=O)OC12COC1CC(O)C1(C)C(=O)C(OC(=O)C(C)C)C3=C(C)C(OC(=O)C(O)C(NC(=O)OC(C)(C)C)c4ccoc4)CC(O)(C(OC(=O)c4ccccc4)C21)C3(C)C (stereo not drawn) [Compound 2273] cannot be ordered by IC50: less than 1 nM for the first, less than 1 nM for the second.

CCCC(=O)O[C@H]1C(=O)[C@@]2(C)[C@H]([C@H](OC(=O)c3ccccc3)[C@]3(O)C[C@H](OC(=O)[C@H](O)[C@@H](NC(=O)c4cccs4)c4cccs4)C(C)=C1C3(C)C)[C@]1(OC(C)=O)CO[C@@H]1C[C@@H]2O [Compound 3408] and CC(=O)O[C@@]12CO[C@@H]1C[C@H](O)[C@@]1(C)C(=O)[C@H](OC(=O)c3cccs3)C3=C(C)[C@@H](OC(=O)[C@H](O)[C@@H](NC(=O)OC(C)(C)C)c4cccs4)C[C@@](O)([C@@H](OC(=O)c4ccccc4)[C@H]21)C3(C)C [Compound 1900] cannot be ordered by IC50: less than 1 nM for the first, less than 1 nM for the second.

CCCC(=O)O[C@H]1C(=O)[C@@]2(C)[C@H]([C@H](OC(=O)c3ccccc3)[C@]3(O)C[C@H](OC(=O)[C@H](O)[C@@H](NC(=O)OC(C)(C)C)c4ccccc4)C(C)=C1C3(C)C)[C@]1(OC(C)=O)CO[C@@H]1C[C@@H]2O [Compound 1060] and CCC(=O)O[C@H]1C(=O)[C@@]2(C)[C@H]([C@H](OC(=O)c3ccccc3)[C@]3(O)C[C@H](OC(=O)[C@H](O)[C@@H](NC(=O)OC(C)(C)C)c4ccc([N+](=O)[O-])cc4)C(C)=C1C3(C)C)[C@]1(OC(C)=O)CO[C@@H]1C[C@@H]2O [Compound 0602] cannot be ordered by IC50: less than 1 nM for the first, less than 1 nM for the second.

CCC(=O)O[C@H]1C(=O)[C@@]2(C)[C@H]([C@H](OC(=O)c3ccccc3)[C@]3(O)C[C@H](OC(=O)[C@H](O)[C@@H](NC(=O)OCC(C)C)c4ccsc4)C(C)=C1C3(C)C)[C@]1(OC(C)=O)CO[C@@H]1C[C@@H]2O [Compound 4711] and CCC(=O)O[C@H]1C(=O)[C@@]2(C)[C@H]([C@H](OC(=O)c3ccccc3)[C@]3(O)C[C@H](OC(=O)[C@H](O)[C@@H](NC(=O)OC(C)C)c4cccs4)C(C)=C1C3(C)C)[C@]1(OC(C)=O)CO[C@@H]1C[C@@H]2O [Compound 3361] cannot be ordered by IC50: less than 10 nM for the first, less than 1 nM for the second.

CC(=O)O[C@@]12CO[C@@H]1C[C@H](O)[C@@]1(C)C(=O)[C@H](OC(=O)C3CC3)C3=C(C)[C@@H](OC(=O)[C@H](O)[C@@H](NC(=O)C=C(C)C)c4cccs4)C[C@@](O)([C@@H](OC(=O)c4ccccc4)[C@H]21)C3(C)C [Compound 4329] and CC(=O)O[C@@]12CO[C@@H]1C[C@H](O)[C@@]1(C)C(=O)[C@H](OC(=O)C3CC3)C3=C(C)[C@@H](OC(=O)[C@H](O)[C@@H](NC(=O)c4cccnc4)c4cccs4)C[C@@](O)([C@@H](OC(=O)c4ccccc4)[C@H]21)C3(C)C [Compound 4112] cannot be ordered by IC50: less than 1 nM for the first, less than 10 nM for the second.

C/C=C/C(=O)N[C@@H](c1ccco1)[C@@H](O)C(=O)O[C@H]1C[C@@]2(O)[C@@H](OC(=O)c3ccccc3)[C@@H]3[C@]4(OC(C)=O)CO[C@@H]4C[C@H](O)[C@@]3(C)C(=O)[C@H](OC(=O)C3CC3)C(=C1C)C2(C)C [Compound 3971] and CCCC(=O)N[C@@H](c1ccco1)[C@@H](O)C(=O)O[C@H]1C[C@@]2(O)[C@@H](OC(=O)c3ccccc3)[C@@H]3[C@]4(OC(C)=O)CO[C@@H]4C[C@H](O)[C@@]3(C)C(=O)[C@H](OC(=O)C3CC3)C(=C1C)C2(C)C [Compound 4062] cannot be ordered by IC50: less than 1 nM for the first, less than 1 nM for the second.

CC(=O)O[C@@]12CO[C@@H]1C[C@H](O)[C@@]1(C)C(=O)[C@H](OC(=O)c3cccs3)C3=C(C)[C@@H](OC(=O)[C@H](O)[C@@H](NC(=O)OC(C)(C)C)C4CCC4)C[C@@](O)([C@@H](OC(=O)c4ccccc4)[C@H]21)C3(C)C [Compound 1970] and CC(=O)O[C@@]12CO[C@@H]1C[C@H](O)[C@@]1(C)C(=O)[C@H](OC(=O)c3cccs3)C3=C(C)[C@@H](OC(=O)[C@H](O)[C@@H](NC(=O)OC(C)(C)C)c4ccoc4)C[C@@](O)([C@@H](OC(=O)c4ccccc4)[C@H]21)C3(C)C [Compound 1923] cannot be ordered by IC50: less than 10 nM for the first, less than 1 nM for the second.

CCC(=O)O[C@H]1C(=O)[C@@]2(C)[C@H]([C@H](OC(=O)c3ccccc3)[C@]3(O)C[C@H](OC(=O)[C@H](O)[C@@H](NC(=O)OC(C)(C)C)C4CC4)C(C)=C1C3(C)C)[C@]1(OC(C)=O)CO[C@@H]1C[C@@H]2O [Compound 0578] and CC(=O)O[C@@]12CO[C@@H]1C[C@H](O)[C@@]1(C)C(=O)[C@H](OC(=O)C3CC3)C3=C(C)[C@@H](OC(=O)[C@H](O)[C@@H](NC(=O)OC(C)(C)C)C4CC4)C[C@@](O)([C@@H](OC(=O)c4ccccc4)[C@H]21)C3(C)C [Compound 0860] cannot be ordered by IC50: less than 1 nM for the first, less than 1 nM for the second.

CC(=O)O[C@@]12CO[C@@H]1C[C@H](O)[C@@]1(C)C(=O)[C@H](OC(=O)c3ccco3)C3=C(C)[C@@H](OC(=O)[C@H](O)[C@@H](NC(=O)OC(C)(C)C)c4ccncc4)C[C@@](O)([C@@H](OC(=O)c4ccccc4)[C@H]21)C3(C)C [Compound 2132] and CCC(=O)O[C@H]1C(=O)[C@@]2(C)[C@H]([C@H](OC(=O)c3ccccc3)[C@]3(O)C[C@H](OC(=O)[C@H](O)[C@@H](NC(=O)OC(C)C)c4ccco4)C(C)=C1C3(C)C)[C@]1(OC(C)=O)CO[C@@H]1C[C@@H]2O [Compound 3522] cannot be ordered by IC50: less than 1 nM for the first, less than 1 nM for the second.

CC(=O)O[C@@]12CO[C@@H]1C[C@H](O)[C@@]1(C)C(=O)[C@H](OC(=O)C3CC3)C3=C(C)[C@@H](OC(=O)[C@H](O)[C@@H](NC(=O)c4ccccc4)c4ccsc4)C[C@@](O)([C@@H](OC(=O)c4ccccc4)[C@H]21)C3(C)C [Compound 2838] and CCCC(=O)O[C@H]1C(=O)[C@@]2(C)[C@H]([C@H](OC(=O)c3ccccc3)[C@]3(O)C[C@H](OC(=O)[C@H](O)[C@@H](NC(=O)c4ccco4)c4ccco4)C(C)=C1C3(C)C)[C@]1(OC(C)=O)CO[C@@H]1C[C@@H]2O [Compound 3686] cannot be ordered by IC50: less than 1 nM for the first, less than 1 nM for the second.

Work on CC(=O)OC12COC1CC(O)C1(C)C(=O)C(OC(=O)C3CC3)C3=C(C)C(OC(=O)C(O)C(NC(=O)OCC(C)C)C4CC4)CC(O)(C(OC(=O)c4ccccc4)C21)C3(C)C (stereo not drawn) [Compound 5232] yielded an IC50 of less than 10 nM.
